From patent publication US12269800B2, “Delivery of therapeutic alkaloid compounds” (priority 2021, dated 2025)
Where two headings read alike, the source gives them in different places.

Legend:
[1] = Plasma Stability Assay of Example A3, human plasma; conditions: % of prodrug compound remaining, 37° C.
[2] = 5 µM
[3] = Plasma Stability Assay of Example A3, mouse plasma; conditions: % of prodrug compound remaining, 37° C.
[4] = 5 µM; remark: listed apart in the source
Experimental: 50 uL aliquots of positive controls and test compounds spiked into rat or human plasma (n=2) were added to a pre-warmed plate (37° C.) and shaken at 50 rpm. At each respective time point, the reaction was stopped by adding 500 μL of acetonitrile containing internal standards (100 nM aprozolam, 200 nM caffeine, 100 nM tolbutamide). All samples were vortexed for 10 minutes, followed by centrifugation at 3,220 g for 30 minutes to precipitate proteins. 100 μL of the supernatant is transferred to a new plate. The supernatant will be diluted with ultrapure water according to the LC-MS signal response and peak shape.

| Compound | Human Plasma Prodrug (%) ([1]; 0.0 min) | Mouse Plasma Prodrug (%) ([3]; 0.0 min) | Mouse Plasma Prodrug (%) ([3]; 15 min) | Mouse Plasma Prodrug (%) ([3]; 30 min) | Mouse Plasma Prodrug (%) ([3]; 60 min) | Mouse Plasma Prodrug (%) ([3]; 120 min) | Mouse Plasma Prodrug (%) ([3]; 240 min) | Human Plasma Prodrug (%) ([1]; 15 min) | Human Plasma Prodrug (%) ([1]; 30 min) | Human Plasma Prodrug (%) ([1]; 60 min) | Human Plasma Prodrug (%) ([1]; 120 min) | Human Plasma Prodrug (%) ([1]; 240 min) | also measured |
| --- | --- | --- | --- | --- | --- | --- | --- | --- | --- | --- | --- | --- | --- |
| COc1ccc([C@@]23CCC(OC(=O)c4cccc(C)c4C)=C[C@@H]2N(C)CC3)cc1OC [Compound 373, (3aS,7aS)-3a-(3,4-dimethoxyphenyl)-1-methyl-2,3,3a,4,5,7a-hexahydro-1H-indol-6-yl 2,3-dimethylbenzoate] | 100% | 100% | 82% | 64% | 41% | 12% | 1% |  |  |  |  |  | Human Plasma Prodrug (%) ([2]; 0 min): 100.0%; Human Plasma Prodrug (%) ([2]; 10 min): 96.3%; Human Plasma Prodrug (%) ([2]; 30 min): >99%; Human Plasma Prodrug (%) ([2]; 60 min): 94.8%; Human Plasma Prodrug (%) ([2]; 120 min): 89.9%; Human Plasma Prodrug (%) ([2]; 240 min): 96.3%; Rat Plasma Prodrug (%) ([4]; 0 min): 100.0%; Rat Plasma Prodrug (%) ([4]; 10 min): 81.0%; Rat Plasma Prodrug (%) ([4]; 30 min): 58.4%; Rat Plasma Prodrug (%) ([4]; 60 min): 26.8%; Rat Plasma Prodrug (%) ([4]; 120 min): 5.2%; Rat Plasma Prodrug (%) ([4]; 240 min): 1.3% |
| COc1ccc([C@@]23CCC(OC(=O)c4ccc(C#N)cc4)=C[C@@H]2N(C)CC3)cc1OC [Compound 354, (3aS,7aS)-3a-(3,4-dimethoxyphenyl)-1-methyl-2,3,3a,4,5,7a-hexahydro-1H-indol-6-yl 4-cyanobenzoate] | 100% | 100% | 5% | 7% | 5% | 4% | 0% | 93% | 72% | 42% | 13% | 1% |  |
| COc1ccc([C@@]23CCC(OC(=O)c4cccc(C)c4)=C[C@@H]2N(C)CC3)cc1OC [Compound 374, (3aS,7aS)-3a-(3,4-dimethoxyphenyl)-1-methyl-2,3,3a,4,5,7a-hexahydro-1H-indol-6-yl 3-methylbenzoate] | 100% | 100% | 33% | 4% | 0% | 0% | 0% | 98% | 88% | 84% | 62% | 11% | Human Plasma Prodrug (%) ([2]; 0 min): 100.0%; Human Plasma Prodrug (%) ([2]; 10 min): >99%; Human Plasma Prodrug (%) ([2]; 30 min): >99%; Human Plasma Prodrug (%) ([2]; 60 min): >99%; Human Plasma Prodrug (%) ([2]; 120 min): >99%; Human Plasma Prodrug (%) ([2]; 240 min): 95.4%; Rat Plasma Prodrug (%) ([4]; 0 min): 100.0%; Rat Plasma Prodrug (%) ([4]; 10 min): 9.7%; Rat Plasma Prodrug (%) ([4]; 30 min): 0.3%; Rat Plasma Prodrug (%) ([4]; 60 min): 0.1%; Rat Plasma Prodrug (%) ([4]; 120 min): 0.0%; Rat Plasma Prodrug (%) ([4]; 240 min): 0.0% |
| C=C(C)C(=O)OC1=C[C@@H]2N(C)CC[C@]2(c2ccc(OC)c(OC)c2)CC1 [Compound 315, [(3aS,7aS)-3a-(3,4-dimethoxyphenyl)-1-methyl-3,4,5,7a-tetrahydro-2H-indol-6-yl]-2-methylprop-2-enoate] | 100.0% | 100.0% | 5.3% | 2.4% | 1.3% | 2.0% | 1.9% |  | 2.3% | 0.5% | 0.2% | 0.0% |  |
| COc1ccc([C@@]23CCC(OC(=O)c4ccc(N(C)C)cc4)=C[C@@H]2N(C)CC3)cc1OC [Compound 355, [(3aS,7aS)-3a-(3,4-dimethoxyphenyl)-1-methyl-3,4,5,7a-tetrahydro-2H-indol-6-yl] 4-(dimethylamino)benzoate] | 100.0% | 100.0% |  |  | 9.9% | 0.5% | 0.0% | >99% | >99% | >99% | >99% |  |  |
| COc1ccc([C@@]23CCC(OC(=O)c4ccc(F)cc4)=C[C@@H]2N(C)CC3)cc1OC [Compound 353, (3aS,7aS)-3a-(3,4-dimethoxyphenyl)-1-methyl-2,3,3a,4,5,7a-hexahydro-1H-indol-6-yl 4-fluorobenzoate] | 100% | 100% | 0% | 0% | 0% | 0% | 0% |  |  |  |  |  |  |
| COc1ccc([C@@]23CCC(OC(=O)C(c4ccccc4)c4ccccc4)=C[C@@H]2N(C)CC3)cc1OC [Compound 306, [(3aS,7aS)-3a-(3,4-dimethoxyphenyl)-1-methyl-3,4,5,7a-tetrahydro-2H-indol-6-yl] 2,2-diphenylacetate] | 100.0% | 100.0% | 6.2% |  | 1.6% | 0.4% | 0.1% |  |  |  |  |  |  |
| COc1ccc([C@@]23CCC(OC(=O)c4cccc(C(C)(C)C)c4)=C[C@@H]2N(C)CC3)cc1OC [Compound 375, (3aS,7aS)-3a-(3,4-dimethoxyphenyl)-1-methyl-2,3,3a,4,5,7a-hexahydro-1H-indol-6-yl 3-(tert-butyl)benzoate] | 100% | 100% | 11% | 2% | 0% | 0% | 0% | >99% | >99% | 97% | 57% | 26% |  |
| C/C=C(\C)C(=O)OC1=C[C@@H]2N(C)CC[C@]2(c2ccc(OC)c(OC)c2)CC1 [Compound 313, [(3aS,7aS)-3a-(3,4-dimethoxyphenyl)-1-methyl-3,4,5,7a-tetrahydro-2H-indol-6-yl](E)-2-methylbut-2-enoate] | 100.0% | 100.0% | 2.1% | 0.7% | 0.1% | 0.0% | 0.0% |  |  |  | 2.4% | 0.4% |  |
| COc1ccc([C@@]23CCC(OC(=O)C4CC4)=C[C@@H]2N(C)CC3)cc1OC [Compound 312, [(3aS,7aS)-3a-(3,4-dimethoxyphenyl)-1-methyl-3,4,5,7a-tetrahydro-2H-indol-6-yl] cyclopropanecarboxylate] | 100.0% | 100.0% | 3.5% | 1.6% | 2.2% | 2.8% | 0.8% | 8.1% | 6.2% |  |  |  |  |
